Common to all, as to assay type: biochemical
For one assay, the target named is Human mTOR (Homo sapiens, UniProt P42345). The experiment in a line: mTOR kinase assay (DELFIA format, purified enzyme). The arrangement: FLAG. The note with it: read-out: TOR Kinase IC50.
A further assay addresses PI3K-gamma (Homo sapiens, UniProt P48736). The experiment in a line: PI3K-gamma fluorescence polarization assay. Particulars: read-out: PI3 Kinase γ IC50. On the procedure:
(§1) The reaction buffer was 20 mM HEPES, pH 7.5, 2 mM MgCl2, 0.05% CHAPS; and 0.01% βME (added fresh). The Stop/Detection Buffer was 100 mM HEPES, pH 7.5, 4 mM EDTA, 0.05% CHAPS; ATP 20 mM in water; PIP2 (diC8, Echelon, Salt Lake City Utah cat #P-4508) 1 mM in water (MW=856.5). The GST-GRP was 1.75 mg/mL or 1.4 mg/mL in 10% glycerol. The Red detector (TAMRA) was 2.5 μM. Nunc 384-well black polypropylene fluorescent plates were used for PI3K assays.
(§2) The assay is run by placing 5 μL of diluted enzyme per well, then 5 μL of diluted compound (or 9.5 μL enzyme then 0.5 μL compound in DMSO) is added and mixed. Then, 10 μL substrate is added to start the reaction. The samples are incubated 30-60 minutes, then the reaction is stopped by adding 20 μL stop/detector mix. PI3K is diluted with reaction buffer (e.g., 5 μL or 7.5 μL PI3K into 620 μL reaction buffer), and 5 μL of diluted enzyme is used per well. A 5 μL portion of reaction buffer or of drug diluted in buffer (e.g., 4 μL/100 so final DMSO is 1% in reaction) is added to each. Pipetting up and down mixes the samples. Alternatively, the enzyme can be diluted to 1215 μL. In this case 9.8 μL is added per well and 0.2 μL compound is added in DMSO.
(§3) To prepare 1 mL of substrate solution, 955 μL reaction buffer, 40 μL PIP2, and 2.5 μL ATP are mixed. 10 μL of substrate is added to each well to start the reaction. […] The stop/detector mix is prepared by mixing 4 μL Red detector and 1.6 μL or 2.0 μL GST-GRP with 1 mL stop buffer, which results in 10 nM probe and 70 nM GST-GRP. 20 μL of the stop/detector mix is added to each well to stop the reaction. The plates are read after 30-90 minutes keeping the red probe solutions dark. For the zero time point, stop/detector mix is added to the enzyme just before adding substrate. For an extra control, stop/detector mix is added to buffer (no enzyme) and substrate or to just buffer (no substrate). […] The recommended reaction has 0.06 μL per 20 μL (0.015 μg/20 μL) or 0.01125 μg/15 μL or 0.75 μg/mL.
(§4) Plates are read on machines with filters for TAMRA. The units are mP with no enzyme controls reading app 190-220 mP units. Fully active enzyme reduces fluorescence polarization down to 70-100 mP after 30 minutes. An active compound raises the mP values halfway to control or to 120-150 mP units.
On the technique in general: In fluorescence polarisation assays a small probe gives low polarisation when free and higher when bound to something large.

For the next assay, the target named is PI3K-alpha (Homo sapiens, UniProt P42336). The experiment in a line: PI3K-alpha fluorescence polarization assay. The note with it: read-out: PI3 Kinase α IC50. On the procedure:
as §1, §2, §3, §4

Usually IC50 stands for the concentration needed to halve the response being measured.

PI3K-gamma, sequence (P48736 whole entry, species assumed): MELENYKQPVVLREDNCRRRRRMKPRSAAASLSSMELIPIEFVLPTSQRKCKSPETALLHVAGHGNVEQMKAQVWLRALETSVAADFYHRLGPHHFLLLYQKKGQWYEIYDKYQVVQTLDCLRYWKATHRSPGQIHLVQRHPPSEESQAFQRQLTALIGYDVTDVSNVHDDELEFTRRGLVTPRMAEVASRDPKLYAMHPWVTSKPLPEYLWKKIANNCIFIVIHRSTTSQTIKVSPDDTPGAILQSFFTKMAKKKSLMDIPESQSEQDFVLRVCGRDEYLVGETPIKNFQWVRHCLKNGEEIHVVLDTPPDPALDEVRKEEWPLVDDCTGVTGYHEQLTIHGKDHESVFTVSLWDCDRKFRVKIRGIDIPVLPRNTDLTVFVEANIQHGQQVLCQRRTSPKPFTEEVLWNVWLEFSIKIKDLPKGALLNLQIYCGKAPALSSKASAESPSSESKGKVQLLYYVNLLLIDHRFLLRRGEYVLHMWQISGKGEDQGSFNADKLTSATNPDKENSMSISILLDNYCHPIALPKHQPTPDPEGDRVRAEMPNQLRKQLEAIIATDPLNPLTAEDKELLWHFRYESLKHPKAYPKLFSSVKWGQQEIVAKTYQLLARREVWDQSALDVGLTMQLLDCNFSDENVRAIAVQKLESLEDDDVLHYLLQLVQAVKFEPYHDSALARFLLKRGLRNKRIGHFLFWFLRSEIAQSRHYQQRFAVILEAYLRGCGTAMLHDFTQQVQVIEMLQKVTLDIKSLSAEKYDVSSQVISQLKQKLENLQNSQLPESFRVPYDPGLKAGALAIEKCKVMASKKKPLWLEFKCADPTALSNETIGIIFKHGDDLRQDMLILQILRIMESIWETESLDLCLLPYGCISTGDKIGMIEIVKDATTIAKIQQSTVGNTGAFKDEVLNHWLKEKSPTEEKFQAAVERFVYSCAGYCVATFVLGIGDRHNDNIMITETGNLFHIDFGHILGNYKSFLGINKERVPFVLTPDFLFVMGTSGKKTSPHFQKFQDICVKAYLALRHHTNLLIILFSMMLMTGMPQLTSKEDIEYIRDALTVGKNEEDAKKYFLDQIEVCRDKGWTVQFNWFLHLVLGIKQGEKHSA
PI3K-alpha, sequence (P42336 whole entry, species assumed): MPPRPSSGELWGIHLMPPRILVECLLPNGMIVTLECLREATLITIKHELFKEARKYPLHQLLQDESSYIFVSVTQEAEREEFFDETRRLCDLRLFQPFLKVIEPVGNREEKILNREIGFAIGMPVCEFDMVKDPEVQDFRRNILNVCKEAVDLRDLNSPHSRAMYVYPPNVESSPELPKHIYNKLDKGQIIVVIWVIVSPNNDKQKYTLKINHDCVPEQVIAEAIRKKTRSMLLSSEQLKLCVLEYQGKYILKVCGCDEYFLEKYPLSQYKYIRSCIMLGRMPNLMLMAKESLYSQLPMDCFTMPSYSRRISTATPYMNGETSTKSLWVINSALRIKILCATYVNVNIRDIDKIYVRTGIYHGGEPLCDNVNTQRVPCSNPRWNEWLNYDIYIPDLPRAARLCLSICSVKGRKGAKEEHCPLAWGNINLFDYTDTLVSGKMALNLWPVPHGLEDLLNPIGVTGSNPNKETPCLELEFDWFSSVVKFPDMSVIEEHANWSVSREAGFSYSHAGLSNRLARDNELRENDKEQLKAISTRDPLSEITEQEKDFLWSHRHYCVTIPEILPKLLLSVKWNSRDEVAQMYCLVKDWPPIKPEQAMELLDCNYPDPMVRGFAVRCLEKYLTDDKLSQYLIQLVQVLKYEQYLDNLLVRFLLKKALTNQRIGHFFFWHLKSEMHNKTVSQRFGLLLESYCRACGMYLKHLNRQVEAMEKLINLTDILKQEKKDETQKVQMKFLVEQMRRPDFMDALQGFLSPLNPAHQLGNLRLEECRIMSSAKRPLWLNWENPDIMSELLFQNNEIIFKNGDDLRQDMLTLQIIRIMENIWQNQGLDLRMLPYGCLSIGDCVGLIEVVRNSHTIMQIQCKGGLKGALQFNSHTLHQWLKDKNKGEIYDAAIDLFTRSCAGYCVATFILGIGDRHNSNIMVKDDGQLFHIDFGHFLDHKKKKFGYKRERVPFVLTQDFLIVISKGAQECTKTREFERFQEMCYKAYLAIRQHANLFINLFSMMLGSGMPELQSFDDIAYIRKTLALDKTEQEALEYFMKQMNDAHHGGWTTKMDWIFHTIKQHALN
PI3K-alpha, sequence (P27986 whole entry partner, species assumed): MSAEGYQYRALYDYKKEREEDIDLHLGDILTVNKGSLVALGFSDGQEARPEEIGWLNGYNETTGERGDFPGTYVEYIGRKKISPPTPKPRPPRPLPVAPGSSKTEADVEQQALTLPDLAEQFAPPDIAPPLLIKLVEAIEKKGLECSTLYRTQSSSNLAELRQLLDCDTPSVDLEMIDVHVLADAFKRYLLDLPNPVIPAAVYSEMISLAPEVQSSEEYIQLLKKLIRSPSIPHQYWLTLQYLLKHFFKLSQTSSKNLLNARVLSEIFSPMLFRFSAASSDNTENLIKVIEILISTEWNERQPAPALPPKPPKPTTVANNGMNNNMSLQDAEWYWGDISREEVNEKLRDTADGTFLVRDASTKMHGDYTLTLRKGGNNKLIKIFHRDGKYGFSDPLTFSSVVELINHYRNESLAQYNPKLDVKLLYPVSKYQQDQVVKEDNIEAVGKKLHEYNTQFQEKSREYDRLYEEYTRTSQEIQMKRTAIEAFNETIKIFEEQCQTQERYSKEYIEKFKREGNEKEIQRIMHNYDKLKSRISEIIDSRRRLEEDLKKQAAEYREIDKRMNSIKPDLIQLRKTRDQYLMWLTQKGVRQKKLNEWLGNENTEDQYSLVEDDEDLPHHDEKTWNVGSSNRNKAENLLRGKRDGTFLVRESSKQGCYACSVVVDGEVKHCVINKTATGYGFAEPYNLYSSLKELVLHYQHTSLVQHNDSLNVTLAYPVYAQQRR

Regarding `CC(C)CC(O)c1cccc(-c2nc(N3CCOCC3)c3ccc4c(ccn4C)c3n2)c1` (stereo not drawn) [Example 28, 3-methyl-1-[3-(7-methyl-4-morpholin-4-yl-7H-pyrrolo[2,3-h]quinazolin-2-yl)phenyl]butan-1-ol], the IC50 at Human mTOR amounted to 2700 nM; at PI3K-gamma it was 4520 nM; on PI3K-alpha, 2510 nM.

On to `Oc1cccc(-c2nc(N3CCOCC3)c3ccc4c(ccn4Cc4ccccc4)c3n2)c1` [Example 46, 3-(7-benzyl-4-morpholin-4-yl-7H-pyrrolo[2,3-h]quinazolin-2-yl)phenol], for which the IC50 stood at 420 nM at Human mTOR, 209 nM at PI3K-gamma and 216 nM at PI3K-alpha.

With `CN(C)CCn1ccc2c3nc(-c4ccc(NC(=O)Nc5ccncc5)cc4)nc(N4CCOCC4)c3ccc21` [Example 33, 1-(4-{7-[2-(dimethylamino)ethyl]-4-morpholin-4-yl-7H-pyrrolo[2,3-h]quinazolin-2-yl}phenyl)-3-pyridin-4-ylurea], the IC50 on Human mTOR worked out at 15 nM; on PI3K-gamma, 862 nM; at PI3K-alpha it was 222 nM.

In the case of `Cn1ccc2c3nc(-c4cccc5[nH]ncc45)nc(N4CCOCC4)c3ccc21` [Example 79, 2-(1H-indazol-4-yl)-7-methyl-4-morpholin-4-yl-7H-pyrrolo[2,3-h]quinazoline], the IC50 turned out to be 435 nM on Human mTOR, 6090 nM on PI3K-gamma and 1080 nM at PI3K-alpha.

`CN1CCC(S(=O)(=O)n2ccc3c4nc(-c5ccc(NC(=O)Nc6ccncc6)cc5)nc(N5CCOCC5)c4ccc32)CC1` [Example 63, 1-(4-{7-[(1-methylpiperidin-4-yl)sulfonyl]-4-morpholin-4-yl-7H-pyrrolo[2,3-h]quinazolin-2-yl}phenyl)-3-pyridin-4-ylurea]: the IC50 on Human mTOR worked out at 67 nM; at PI3K-gamma, 491 nM; on PI3K-alpha, 119 nM.

Consider `O=S(=O)(c1ccccc1)n1ccc2c3nc(-c4cccc(CO)c4)nc(N4CCOCC4)c3ccc21` [Example 70, {3-[4-morpholin-4-yl-7-(phenylsulfonyl)-7H-pyrrolo[2,3-h]quinazolin-2-yl]phenyl}methanol], for which the IC50 on Human mTOR turned out to be 5800 nM; at PI3K-gamma it was 2070 nM; at PI3K-alpha it was 168 nM.

Take `CN(C)CCn1ccc2c3nc(-c4cccc(CO)c4)nc(N4CCOCC4)c3ccc21` [Example 30, (3-{7-[2-(dimethylamino)ethyl]-4-morpholin-4-yl-7H-pyrrolo[2,3-h]quinazolin-2-yl}phenyl)methanol]: the figures for the half-inhibitory concentration (IC50) at Human mTOR, on PI3K-gamma and on PI3K-alpha were 9150 nM, 4950 nM and 455 nM, respectively.

On to `CN(C)CCn1ccc2c3nc(-c4cnc(N)nc4)nc(N4CCOCC4)c3ccc21` [Example 34, 5-{7-[2-(dimethylamino)ethyl]-4-morpholin-4-yl-7H-pyrrolo[2,3-h]quinazolin-2-yl}pyrimidin-2-amine], for which the half-maximal inhibitory concentration (IC50) on Human mTOR worked out at 1300 nM; at PI3K-gamma, 3190 nM; at PI3K-alpha, 201 nM.

In the case of `O=S(=O)(c1ccccc1)n1ccc2c3nc(-c4cccc(O)c4)nc(N4CCOCC4)c3ccc21` [Example 69, 3-[4-morpholin-4-yl-7-(phenylsulfonyl)-7H-pyrrolo[2,3-h]quinazolin-2-yl]phenol], the IC50 on Human mTOR was determined as 1110 nM; on PI3K-gamma, 1130 nM; on PI3K-alpha, 274 nM.

As to `CC(=O)NCc1cccc(-c2nc(N3CCOCC3)c3ccc4c(ccn4C)c3n2)c1` [Example 44, N-[3-(7-methyl-4-morpholin-4-yl-7H-pyrrolo[2,3-h]quinazolin-2-yl)benzyl]acetamide], the half-inhibitory concentration (IC50) on Human mTOR turned out to be 4000 nM; at PI3K-gamma, 9500 nM; on PI3K-alpha, 9360 nM.

As to `Nc1ncc(-c2nc(N3CCOCC3)c3ccc4c(ccn4S(=O)(=O)c4ccccc4)c3n2)cn1` [Example 71, 5-[4-morpholin-4-yl-7-(phenylsulfonyl)-7H-pyrrolo[2,3-h]quinazolin-2-yl]pyrimidin-2-amine], the IC50 on Human mTOR was 545 nM; on PI3K-gamma, 114 nM; at PI3K-alpha, 52 nM.

Source of the values: patent US20090227575A1, “7H-PYRROLO[2,3-H]QUINAZOLINE COMPOUNDS, THEIR USE AS mTOR KINASE AND PI3 KINASE INHIBITORS, AND THEIR [sequence]” (Wyeth, priority 2008, published 2009).
